Data taken from patent US11439641B2, “Pyrimidine JAK inhibitors for the treatment of skin diseases” (THERAVANCE BIOPHARMA R&D IP, LLC, priority 2019, dated 2022).
≈ marks a conversion by molar mass, not a printed value.

Key:
physchem = conditions: thermodynamic from solid
[1] = test system: IL-2 stimulated pSTAT5 in Tall-1 T cells; assay: Inhibition of IL-2 Stimulated pSTAT5 in Tall-1 T Cells; format: cell-based; conditions: Tall-1 human T cell line, IL-2 300 ng/mL, AlphaLisa; read-out: Tall-1 IL2 pSTAT5 (pIC50) (converted)
Procedure: Assay 2: Inhibition of IL-2 Stimulated pSTAT5 in Tall-1 T Cells
The potency of test compounds for inhibition of interleukin-2 (IL-2) stimulated STATS phosphorylation was measured in the Tall-1 human T cell line (DSMZ) using AlphaLisa. Because IL-2 signals through JAK1/3, this assay provides a measure of JAK1/3 cellular potency.
Phosphorylated STATS was measured via the AlphaLISA SureFire Ultra pSTAT5 (Tyr694/699) kit (PerkinElmer). Human T cells from the Tall-1 cell line were cultured in a 37° C., 5% CO2 humidified incubator in RPMI (Life Technologies) supplemented with 15% Heat Inactivated Fetal Bovine Serum (FBS, Life Technologies), 2 mM Glutamax (Life Technologies), 25 mM HEPES (Life Technologies) and 1× Pen/Strep (Life Technologies). Compounds were serially diluted in DMSO and dispensed acoustically to empty wells. Assay media (phenol red-free DMEM (Life Technologies) supplemented with 10% FBS (ATCC)) was dispensed (4 μL/well) and plates shaken at 900 rpm for 10 mins. Cells were seeded at 45,000 cells/well in assay media (4 μL/well), and incubated at 37° C., 5% CO2 for 1 hour, followed by the addition of IL-2 (R&D Systems; final concentration 300 ng/mL) in pre-warmed assay media (4 μL) for 30 minutes. After cytokine stimulation, cells were lysed with 6 ul of 3× AlphaLisa Lysis Buffer (PerkinElmer) containing 1× PhosStop and Complete tablets (Roche). The lysate was shaken at 900 rpm for 10 minutes at room temperature (RT). Phosphorylated STATS was measured via the pSTAT5 AlphaLisa kit (PerkinElmer). Freshly prepared acceptor bead mixture was dispensed onto lysate (51) under green filtered <100 lux light. Plates were shaken at 900 rpm for 2 mins, briefly spun down, and incubated for 2 hrs at RT in the dark. Donor beads were dispensed (5 μL) under green filtered <100 lux light. Plates were shaken at 900 rpm for 2 minutes, briefly spun down, and incubated overnight at RT in the dark. Luminescence was measured with excitation at 689 nm and emission at 570 nm using an EnVision plate r reader (PerkinElmer) under green filtered <100 lux light.
To determine the inhibitory potency of test compounds in response to IL-2, the average emission intensity of beads bound to pSTAT5 was measured in a human T cell line. IC50 values were determined from analysis of the inhibition curves of signal intensity versus compound concentration. Data are expressed as pIC50 (negative decadic logarithm IC50) values (mean±standard deviation).

JAK3 = JAK3 (Homo sapiens (Human), UniProt P52333); assay: Biochemical JAK and Tyk2 Kinase Assays (LanthaScreen), JAK3; conditions: 1.6 μM ATP (Km), pIC50 converted to pKi by Cheng-Prusoff; for Ki: read-out: JAK 3 (pKi) (converted)
Chain of JAK3 (P52333 whole entry): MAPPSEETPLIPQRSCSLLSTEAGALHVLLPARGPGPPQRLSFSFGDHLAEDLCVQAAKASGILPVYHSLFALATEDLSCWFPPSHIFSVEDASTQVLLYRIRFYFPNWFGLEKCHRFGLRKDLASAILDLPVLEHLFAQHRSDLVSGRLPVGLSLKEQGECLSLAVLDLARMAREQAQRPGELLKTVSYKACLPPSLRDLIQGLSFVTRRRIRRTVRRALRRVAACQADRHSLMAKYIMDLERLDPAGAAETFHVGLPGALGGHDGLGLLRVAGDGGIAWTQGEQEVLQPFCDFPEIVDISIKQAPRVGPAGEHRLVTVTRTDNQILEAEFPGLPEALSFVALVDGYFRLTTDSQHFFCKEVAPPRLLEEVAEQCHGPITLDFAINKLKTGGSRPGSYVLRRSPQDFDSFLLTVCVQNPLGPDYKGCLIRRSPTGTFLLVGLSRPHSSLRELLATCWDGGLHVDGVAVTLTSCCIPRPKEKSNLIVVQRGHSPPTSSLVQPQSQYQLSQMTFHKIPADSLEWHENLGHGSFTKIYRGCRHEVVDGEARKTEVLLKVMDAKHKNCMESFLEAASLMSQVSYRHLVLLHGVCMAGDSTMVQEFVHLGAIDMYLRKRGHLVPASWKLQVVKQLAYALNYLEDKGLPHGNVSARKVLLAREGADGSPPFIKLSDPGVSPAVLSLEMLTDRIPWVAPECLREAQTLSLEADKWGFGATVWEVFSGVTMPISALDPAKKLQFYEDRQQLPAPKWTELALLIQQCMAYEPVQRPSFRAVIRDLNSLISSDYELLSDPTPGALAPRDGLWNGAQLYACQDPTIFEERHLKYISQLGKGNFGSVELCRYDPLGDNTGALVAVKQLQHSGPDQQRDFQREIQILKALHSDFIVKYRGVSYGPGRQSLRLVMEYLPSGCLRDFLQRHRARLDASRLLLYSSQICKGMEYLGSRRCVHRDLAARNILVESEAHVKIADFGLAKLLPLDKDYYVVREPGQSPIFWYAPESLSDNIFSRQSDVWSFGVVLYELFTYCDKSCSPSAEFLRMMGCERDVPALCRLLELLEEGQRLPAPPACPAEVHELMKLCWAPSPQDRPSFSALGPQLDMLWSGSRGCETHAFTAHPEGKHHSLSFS
Procedure: (§1) Assay 1: Biochemical JAK and Tyk2 Kinase Assays
(§2) A panel of four LanthaScreen JAK biochemical assays (JAK1, 2, 3 and Tyk2) were carried in a common kinase reaction buffer (50 mM HEPES, pH 7.5, 0.01% Brij-35, 10 mM MgCl2, and 1 mM EGTA). Recombinant GST-tagged JAK enzymes and a GFP-tagged STAT1 peptide substrate were obtained from Life Technologies.
(§3) Serially or discretely diluted compounds were pre-incubated with each of the four JAK enzymes and the substrate in white 384-well microplates (Corning) at ambient temperature for 1 h. ATP was subsequently added to initiate the kinase reactions in 10 μL total volume, with 1% DMSO. The final enzyme concentrations for JAK1, 2, 3 and Tyk2 are 4.2 nM, 0.1 nM, 1 nM, and 0.25 nM respectively; the corresponding Km ATP concentrations used are 25 μM, 3 μM, 1.6 μM, and 10 μM; while the substrate concentration is 200 nM for all four assays. Kinase reactions were allowed to proceed for 1 hour at ambient temperature before a 10 μL preparation of EDTA (10 mM final concentration) and Tb-anti-pSTAT1 (pTyr701) antibody (Life Technologies, 2 nM final concentration) in TR-FRET dilution buffer (Life Technologies) was added. The plates were allowed to incubate at ambient temperature for 1 h before being read on the EnVision reader (Perkin Elmer). Emission ratio signals (520 nm/495 nm) were recorded and utilized to calculate the percent inhibition values based on DMSO and background controls.
(§4) For dose-response analysis, percent inhibition data were plotted vs. compound concentrations, and IC50 values were determined from a 4-parameter robust fit model with the Prism software (GraphPad Software). Results were expressed as pIC50 (negative logarithm of IC50) and subsequently converted to pKi (negative logarithm of dissociation constant, Ki) using the Cheng-Prusoff equation.

JAK1 = JAK1 (Homo sapiens (Human), UniProt P23458); assay: Biochemical JAK and Tyk2 Kinase Assays (LanthaScreen), JAK1; conditions: 25 μM ATP (Km), pIC50 converted to pKi by Cheng-Prusoff
Chain of JAK1 (P23458 whole entry): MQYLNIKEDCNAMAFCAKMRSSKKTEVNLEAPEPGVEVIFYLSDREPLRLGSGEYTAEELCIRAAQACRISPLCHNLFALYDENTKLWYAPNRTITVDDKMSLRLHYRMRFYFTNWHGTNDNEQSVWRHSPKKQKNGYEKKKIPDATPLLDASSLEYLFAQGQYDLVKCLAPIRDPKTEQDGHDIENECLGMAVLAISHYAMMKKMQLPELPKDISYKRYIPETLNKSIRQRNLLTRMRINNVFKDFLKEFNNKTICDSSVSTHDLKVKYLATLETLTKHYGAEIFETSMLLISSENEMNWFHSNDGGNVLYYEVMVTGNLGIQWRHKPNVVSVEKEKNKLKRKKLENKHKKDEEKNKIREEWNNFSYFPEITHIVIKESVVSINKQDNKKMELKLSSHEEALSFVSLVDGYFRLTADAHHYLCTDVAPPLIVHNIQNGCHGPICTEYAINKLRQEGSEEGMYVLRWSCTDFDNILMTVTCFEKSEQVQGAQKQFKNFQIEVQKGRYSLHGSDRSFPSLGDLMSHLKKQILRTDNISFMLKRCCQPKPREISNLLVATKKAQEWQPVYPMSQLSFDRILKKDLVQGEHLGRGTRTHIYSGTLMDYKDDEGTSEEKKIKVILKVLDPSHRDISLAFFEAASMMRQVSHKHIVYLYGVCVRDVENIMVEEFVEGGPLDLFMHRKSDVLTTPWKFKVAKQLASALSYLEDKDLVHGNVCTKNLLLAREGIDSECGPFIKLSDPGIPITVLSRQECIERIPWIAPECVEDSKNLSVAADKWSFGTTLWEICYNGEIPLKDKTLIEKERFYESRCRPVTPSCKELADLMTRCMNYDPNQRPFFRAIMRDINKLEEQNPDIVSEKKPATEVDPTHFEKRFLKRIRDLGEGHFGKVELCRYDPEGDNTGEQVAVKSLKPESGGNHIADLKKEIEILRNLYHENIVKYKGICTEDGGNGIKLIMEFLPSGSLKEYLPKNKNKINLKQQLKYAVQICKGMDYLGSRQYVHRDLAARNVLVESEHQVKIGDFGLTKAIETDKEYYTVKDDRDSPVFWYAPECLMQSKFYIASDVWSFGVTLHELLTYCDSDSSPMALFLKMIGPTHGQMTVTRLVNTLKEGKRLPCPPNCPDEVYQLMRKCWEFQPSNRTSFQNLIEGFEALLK
Procedure: as §1, §2, §3, §4

Caco-2 cell monolayer = assay: Caco-2 Permeation Assay; format: in vitro ADME; conditions: Papp, 5 μM compound; for Cacoverap Kp 10^−6 cm/sec: A→B in the presence of 25 μM verapamil (P-gp inhibitor); for Caco Kp 10^−6 cm/sec: apical to basal (A→B)
Procedure: Assay 3: Caco-2 Permeation Assay
The Caco 2 permeability assay was used as a surrogate for assessment of skin permeability. This assay measures the in vitro permeability across a monolayer of Caco-2 cells, which morphologically and functionally resemble the enterocytes of the small intestine.
CacoReady 24-well transwell plates were obtained from ADMEcell (Alameda, Calif.). The compounds were evaluated at a concentration of 5 μM from 10 mM DMSO stock solutions in duplicate (n=2). Transport in the apical to basal (A→B) direction was determined in Caco 2 cell monolayers. From these values the apparent permeability (Papp) was calculated. To inform on the potential of the compound to be a P-gp substrate, the transport of the compound across the Caco-2 cell monolayer was also determined in the presence of 25 μM of the known P-gp inhibitor verapamil (Yusa and Tsuruo et al., Cancer Research, vol. 49, no. 18, 1989, pp. 5002-06).
Caco-2 culture media consisted of standard filtered DMEM, FCS 10%, L-Glutamine 1%, and PenStrep 1%. The experiment was conducted at 37° C. and in a CO2 (5%) incubator. The basal assay plate was prepared by adding 750 pt of transport buffer to A→B wells. A CacoReady™ plate was prepared by removing the Caco-2 media from the apical wells and replacing with fresh transport media (200 pt repeated for a total of 3 washes). Blank media (200 μL) was then replaced with diluted compound. To begin the incubation, the basal plate was removed from the incubator and the apical section was added on top of it. Samples were collected from the apical and basal compartments for time zero (t0). Samples were collected again after 120 minutes (t120) from the apical and basal compartments. All samples were diluted and prepared for bioanalysis by LC-MS/MS. The permeability coefficients (Papp, mean A to B) and (Papp, mean A to B+Verapamil) in cm/sec were calculated as dQ (flux)/(dt×Area×concentration).
In this assay, a compound with a Papp value of more than about 12×10−6 cm/sec is considered to have high permeability.

Aqueous Solubility Assay = conditions: PBS buffer pH 7.4; maximum upper limit 1,000 μM
[2] = Solubility Assay in Organic Excipients; conditions: maximum upper limit 20,000 μM; for Solubility in MCT (mg/mL): medium chain triglycerides (MCT)
[3] = oil or lipid, Solubility in MCT (mg/mL)
[4] = organic solvent or mixture, Solubility in Diisopropyl adipate (mg/mL)
[5] = organic solvent or mixture, Solubility in PEG400 (mg/mL)
[6] = organic solvent or mixture, Solubility in Propylene glycol (mg/mL)

SMILES | solubility at 4 h (physchem; [3]) [µg/mL] | solubility at 4 h (physchem; [4]) [µg/mL] | solubility at 4 h (physchem; [5]) [µg/mL] | solubility at 4 h (physchem; [6]) [µg/mL] | IC50 [1] [nM] | Ki (JAK3) [nM] | Ki (JAK1; read-out: JAK 1 (pKi) (converted)) [nM] | Cacoverap Kp 10^−6 cm/sec (Caco-2 cell monolayer) | Caco Kp 10^−6 cm/sec (Caco-2 cell monolayer) | Solubility at PH 7.4 (μmol) (Aqueous Solubility Assay) | JAK 3 (pKi) (JAK3) | JAK 1 (pKi) (JAK1) | Solubility in PEG400 (mg/mL) [2] | Solubility in Diisopropyl adipate (mg/mL) [2] | Solubility in MCT (mg/mL) [2] | Solubility in Propylene glycol (mg/mL) [2]
COC(=O)N1[C@@H]2CCC[C@H]1C[C@H](N(C)c1nc(Nc3cc(C)[nH]n3)cc(OC3COC3)n1)C2 [Compound 36] | < 5000 | 5000 to 10000 (≈ 10.9 to 21.9 mM) | > 10000 | > 10000 | ≤ 10 | 1 to 10 | 0.1 to 1 | B (B represents a value between 20×10^−6 and 35×10^−6 cm/sec) | B (B represents a value between 15×10^−6 and 30×10^−6 cm/sec) | – | – | – | – | – | – | –
CCS(=O)(=O)N1[C@@H]2CCC[C@H]1C[C@H](N(C)c1nc(Nc3cc(C)[nH]n3)c(F)c(C3CCOC3)n1)C2 (stereo partly drawn) [Compound 44, N2-((1R,3s,5S)-9-(ethylsulfonyl)-9-azabicyclo[3.3.1]nonan-3-yl)-5-fluoro-N2-methyl-N4-(5-methyl-1H-pyrazol-3-yl)-6-(tetrahydrofuran-3-yl)pyrimidine-2,4-diamine] | – | – | – | – | – | – | – | – | – | E (E represents a value below 10) | C (C represents a pKi value between 8 and 9 (Ki between 10 nM and 1 nM)) | A (A represents a pKi value ≥10 (Ki≤0.1 nM)) | – | – | – | –
Cc1cc(Nc2cc(C3CCOCC3)nc(N(C)[C@@H]3C[C@H]4CCC[C@@H](C3)N4C(=O)CC3CC3)n2)n[nH]1 [Compound 4, 2-cyclopropyl-1-((1R,3s,5S)-3-(methyl(4-((5-methyl-1H-pyrazol-3-yl)amino)-6-(tetrahydro-2H-pyran-4-yl)pyrimidin-2-yl)amino)-9-azabicyclo[3.3.1]nonan-9-yl)ethan-1-one] | – | – | – | – | – | – | – | – | – | E (E represents a value below 10) | B (B represents a pKi value between 9 and 10 (Ki between 1 nM and 0.1 nM)) | A (A represents a pKi value ≥10 (Ki≤0.1 nM)) | C (C represents a value below 5) | C (C represents a value below 5) | C (C represents a value below 5) | C (C represents a value below 5)
CCNC(=O)CN1[C@@H]2CCC[C@H]1C[C@H](N(C)c1nc(Nc3cc(C)[nH]n3)cc(O[C@@H]3CCOC3)n1)C2 [Compound 20] | < 5000 | > 10000 | > 10000 | > 10000 | ≤ 10 | 0.1 to 1 | – | B (B represents a value between 20×10^−6 and 35×10^−6 cm/sec) | B (B represents a value between 15×10^−6 and 30×10^−6 cm/sec) | – | – | A (A represents a pKi value ≥10 (Ki≤0.1 nM)) | – | – | – | –
Cc1cc(Nc2cc(C3CCCO3)nc(N(C)[C@@H]3C[C@H]4CCC[C@@H](C3)N4CC(=O)N3CCCC3)n2)n[nH]1 (stereo partly drawn) [Compound 16, 2-((1R,3s,5S)-3-(methyl(4-((5-methyl-1H-pyrazol-3-yl)amino)-6-(tetrahydrofuran-2-yl)pyrimidin-2-yl)amino)-9-azabicyclo[3.3.1]nonan-9-yl)-1-(pyrrolidin-1-yl)ethan-1-one] | – | – | – | – | – | – | – | – | – | A (A represents a value above 500) | C (C represents a pKi value between 8 and 9 (Ki between 10 nM and 1 nM)) | A (A represents a pKi value ≥10 (Ki≤0.1 nM)) | C (C represents a value below 5) | C (C represents a value below 5) | C (C represents a value below 5) | C (C represents a value below 5)
CCS(=O)(=O)N1[C@@H]2CCC[C@H]1C[C@H](N(C)c1nc(Nc3cc(C)[nH]n3)cc(O[C@@H]3CCOC3)n1)C2 [Compound 18, N^2-((1R,3s,5S)-9-(ethylsulfonyl)-9-azabicyclo[3.3.1]nonan-3-yl)-N2-methyl-N4-(5-methyl-1H-pyrazol-3-yl)-6-(((R)-tetrahydrofuran-3-yl)oxy)pyrimidine-2,4-diamine] | – | – | – | – | – | – | – | – | – | D (D represents a value between 10 and 50) | B (B represents a pKi value between 9 and 10 (Ki between 1 nM and 0.1 nM)) | A (A represents a pKi value ≥10 (Ki≤0.1 nM)) | B (B represents a value between 5 and 10) | B (B represents a value between 5 and 10) | C (C represents a value below 5) | B (B represents a value between 5 and 10)
